Experimental findings from ChEMBL document CHEMBL5727017, “N-arylmethyl sulfonamide negative modulators of NR2A” (2018) are described below.

Structures are written as SMILES.

This assay in a line: Biological Assay: Cell Culture and plating: HEK293 cells expressing NR1/NR2A (Chantest, Cleveland, Ohio) were grown to 70-80% confluency as an adherent monolayer in standard tissue culture flasks at 37° C., 5% CO2 per supplier's instructions. NR2A expression was induced by incubation with 0.3-0.4 μg/ml tetracycline in the presence of 4 mM ARL-15896 for 18-24 hours under the same growth conditions, then transferred to 30° C. for another 3-5 hours.After induction, cell culture medium was removed and cells were rinsed once with Ca2+ and Mg2+-free Dulbecco's phosphate buffered saline. Cells were then removed from the flask using TrypLE Express (Life Technologies) according to the manufacturer's instructions and collected to 50 ml centrifuge tubes. Following two washes in Ca2+/Mg2+-free HBSS with 20 mM HEPES (HHnoCa), cells were counted and viability assessed using trypan blue. To load cells with Ca2+-sensitive dye, they were resuspended in fluo-8 plus Component B (AAT Bioquest Products) diluted in HHnoCa and incubated 15 minutes at 37° C., followed by 30 minutes at room temp (in dark). Cells were then washed and resuspended in HHnoCa to remove extracellular dye and plated in 384-well plates (Falcon, uncoated) at 20,000-30,000 cells/well in a final volume of 25 μL/well.

With `Cc1ncc(CNC(=O)c2ccc(CNS(=O)(=O)c3c(C)noc3C)cn2)s1`, the IC50 is 10 µM.
